Columns and labels:
[1] = test system: A/Puerto Rico/8/34 (H1N1) influenza virus; assay: Antiviral (cytoprotection, MTT) assay against influenza virus in MDCK cells; type: cell-based; details: for SI: CC50/IC50 ratio, influenza H1N1 / MDCK; for IC50: Influenza A virus, H1N1, MDCK, 48 h, 50% inhibition of virus replication, read-out: IC50
M-HeLa = assay: Cytotoxicity assay (Cytell Cell Imaging, DAPI/propidium iodide); type: cell-based; details: cytotoxic activity, human cervix epitheloid carcinoma, read-out: IC50 Cancer Cell Lines M-HeLa
in vitro [2] = details: African green monkey, CC50, Vero cells, MTT; concentration causing 50% cell death
HuTu-80 = assay: Cytotoxicity assay (Cytell Cell Imaging, DAPI/propidium iodide); type: cell-based; details: Homo sapiens, HuTu80; cytotoxic activity, duodenal adenocarcinoma; read-out: IC50 Cancer Cell Lines HuTu-80
Coxsackie B3 virus = assay: Antiviral (cytoprotection, MTT) assay against Coxsackie B3 virus in Vero cells; type: cell-based, coxsackievirus B3; details: for IC50: 50% inhibition of virus replication, Vero cells, 48 h; for SI: CC50/IC50 ratio, Coxsackie B3 / Vero
PC-3 = assay: Cytotoxicity assay (Cytell Cell Imaging, DAPI/propidium iodide); type: cell-based; details: cytotoxic activity, human prostate adenocarcinoma, read-out: IC50 Cancer Cell Lines PC-3
in vitro [3] = details: dog
WI-38 = assay: Cytotoxicity assay (Cytell Cell Imaging, DAPI/propidium iodide); type: cell-based; details: cytotoxic activity, normal human lung fibroblasts, read-out: IC50 Normal Cell Line WI-38

SMILES | SI [1] | IC50 ([1]; MDCK cells) | antiviral activity against influenza virus A H1N1 (in words) ([1]; MDCK cells) | IC50 (M-HeLa) | CC50 (in vitro [2]) | IC50 (HuTu-80) | IC50 (Coxsackie B3 virus) | SI (Coxsackie B3 virus) | IC50 (Coxsackie B3 virus; Enterovirus B, B3, Vero) | IC50 (PC-3) | CC50 (in vitro [3]) | IC50 (WI-38) | CC50 (Vero cells; Vero cells, MTT, concentration causing 50% cell death) | cytotoxicity against the Vero cell line (in words) (Vero cells)
CC(=O)OCC1OC(n2cc(CCCCn3c(=O)c4nc5ccccc5nc4n(CCCCc4cn(C5OC(COC(C)=O)C(OC(C)=O)C5OC(C)=O)nn4)c3=O)nn2)C(OC(C)=O)C1OC(C)=O (stereo not drawn) [Compound 5f] | 3 | 91.6 ± 10.8 µM | inactive | 71.4 ± 6.3 µM | 18 µM | > 100 µM | > 11.3 µM | 2 | 11.3 µM | 66.8 ± 5.3 µM | > 308 µM | > 100 µM | 17.8 ± 1.1 µM | –
O=c1c2nc3ccccc3nc2n(CCCCc2cn(C3OC(CO)C(O)C3O)nn2)c(=O)n1CCCCc1cn(C2OC(CO)C(O)C2O)nn1 (stereo not drawn) [Compound 5i] | 17 | 24.3 ± 3.2 µM | – | 71 ± 6.1 µM | > 414 µM | > 100 µM | – | 1 | > 414 µM | > 100 µM | > 414 µM | > 100 µM | – | not cytotoxic

— PMC8234143, “Synthesis and Antiviral Evaluation of Nucleoside Analogues Bearing One Pyrimidine Moiety and Two D-Ribofuranosyl Residues” (Molecules, 2021)
